# pIC50: −log10 of the molar value.
# How the values were obtained:
# TRPA1 channel = TRPA1 channel (Rattus norvegicus (Rat), UniProt Q6RI86); assay: AITC-induced rat blood flow evaluation test; assay type: in vivo; conditions: for rat blood flow model (% inh.): oral, 60 min before AITC (1%) application to ear, male SD rats
# Procedure: AITC-Induced Rat Blood Flow Evaluation Test
# To evaluate the effectiveness of the test substance in vivo, allylisothiocyanate (AITC)-induced blood flow evaluation test was performed using rat.
# AITC is a selective agonist of the TRPA1 channel, and causes an increase in the peripheral blood flow through TRPA1 activation when applied to animal. Therefore, the intensity of the TRPA1 antagonist action of the test substance in the living body can be evaluated by measuring the increase in the peripheral blood flow after AITC application.
# 1. Administration of Test Substance to Animal
# As the animal, 9-11-week-old male SD rats were used. A test substance was orally administered 60 min before AITC application and evaluated. On the previous day, the blood flow was measured when vehicle was administered to the same individual.
# 2. Evaluation of AITC-Induced Blood Flow
# Under isoflurane anesthesia, the rats were placed in a prone position and a laser was irradiated with a probe of a laser Doppler flowmeter (OMEGA FLOW FLO-N1 neuro science, inc) at a distance of 1 cm from the ear of the rat, and the blood flow was measured, which was recorded using Power lab. After confirmation of stable blood flow, 15 μL of AITC (1%) solution was applied to be spread on the ear of the rat and the blood flow was measured for 20 min.
# 3. Calculatuin of Inhibitory Rate
# Mean blood flow for 10 seconds at each analysis time point (1, 5, 10, 15, 20 min) was calculated, and the amount of change from the blood flow before AITC application was calculated as AUC (Area under the curve). AUC (% of baseline) was determined by normalizing the value obtained by (mean of AUC after test substance administration/mean of AUC after vehicle administration to the same individual)×100 with the ratio of AUC obtained by vehicle administration for the both days. The inhibition ratio was determined by 100−AUC (% of baseline).
# human TRPA1 = human TRPA1 (Homo sapiens (Human), UniProt O75762); assay: Measurement of TRPA1 antagonist activity (intracellular calcium increase induced by allylisothiocyanate in 293T cells transfected with human TRPA1); assay type: cell-based; conditions: 293T cells expressing human TRPA1, allylisothiocyanate stimulation, FLIPR Calcium4 fluorescence; read-out: hTRPA1 IC50
# Procedure: Measurement of TRPA1 Antagonist Activity
# Human TRPA1 Expression Plasmid
# Using cDNA encoding human TRPA1 (GenBank accession No. NM_007332) (manufactured by Kazusa DNA Research Institute, item No. FHC07217) as a template, primer 1 (SEQ ID NO: 1) and primer 2 (SEQ ID NO: 2), PCR by PfuUltra High-Fidelity DNA Polymerase (Stratagene) was performed, and full-length human TRPA1 gene was amplified.
# A recognition site (underlined) of restriction enzyme HindIII was added to the 5′ end of human TRPA1 gene, and XbaI site (underlined) was added to the 3′ end of human TRPA1 gene, and GTT of the template sequence was changed to termination codon TAG (bold). The obtained double stranded DNA was enzyme-digested with HindIII and XbaI, and introduced into a multicloning site of expression plasmid pcDNA3.1/zeo(+) (manufactured by Invitrogen) to give a human TRPA1 expression plasmid.
# Human embryonic kidney-derived 293T cells were cultured in Dulbecco's Modified Eagle Medium containing 10% fetal bovine serum, 10 unit penicillin, and 10 μg streptomycin. One day before assay, 3×10^6 of 293T cells were plated on a petri dish having a diameter of 10 cm, and cultured in a CO2 incubator for 24 hr. OPTI-MEM I Reduced Serum Media (Invitrogen) (600 μL), Mirus TransIT-293 (Mirus Bio) (18 μL), and human TRPA1 expression plasmid (6 μg) were mixed, the total amount of the mixture was added to the cells on the petri dish to allow for gene transfer. The cells were recovered about for 8 hr later, plated on a poly-D-lysine coated 384 well black/clear bottom plate at 12,000 cells/well, and cultured overnight.
# Measurement of Intracellular Calcium Increase
# The medium was removed from the 384 well plate, calcium indicator (Molecular Device, trade name: FLIPR Calcium4 Assay Kit) dissolved in HBSS (Thermo Fisher Scientific) (pH 7.2) containing 20 mM HEPES was added (38 μL/well), and the cells were stained in a CO2 incubator for 1 hr. The 384 well plate was stood at room temperature for not less than 15 min, set on FDSS7000 (Hamamatsu Photonics K.K.), and a test substance solution was added at 10 μL/well. After 10 min, allylisothiocyanate solution (12 μL/well) was added, the relative fluorescence intensity was measured for 5 min after addition of the allylisothiocyanate solution.
# Test Substance Preparation
# Preparation of Test Substance Solution and Allylisothiocyanate Solution
# A test substance solution was prepared to have a composition of HBSS (Thermo Fisher Scientific) (pH 7.2) containing 0.48% dimethyl sulfoxide, a test substance at 4.8-fold concentration of the evaluation concentration, 0.1% bovine serum albumin and 20 mM HEPES. An allylisothiocyanate solution was prepared to have a composition of HBSS (Thermo Fisher Scientific) (pH 7.2) containing 0.1% dimethyl sulfoxide, 100 μM allylisothiocyanate, 0.1% bovine serum albumin and 20 mM HEPES.
# Calculation of Antagonist Activity
# The activity rate of a test substance at each concentration was calculated, wherein the relative fluorescence intensity change of a well free of a test substance and containing allylisothiocyanate is 100% activity rate, and the relative fluorescence intensity change of a well free of a test substance and allylisothiocyanate is 0% activity rate. The inhibitory rate of a test substance at each concentration was calculated by subtracting the activity rate of the test substance from 100% activity rate, and the concentration of a test substance showing 50% inhibitory rate was calculated as IC50 from the sigmoid approximate curve by XLfit (idbs).
# Sequence of human TRPA1 (O75762 whole entry): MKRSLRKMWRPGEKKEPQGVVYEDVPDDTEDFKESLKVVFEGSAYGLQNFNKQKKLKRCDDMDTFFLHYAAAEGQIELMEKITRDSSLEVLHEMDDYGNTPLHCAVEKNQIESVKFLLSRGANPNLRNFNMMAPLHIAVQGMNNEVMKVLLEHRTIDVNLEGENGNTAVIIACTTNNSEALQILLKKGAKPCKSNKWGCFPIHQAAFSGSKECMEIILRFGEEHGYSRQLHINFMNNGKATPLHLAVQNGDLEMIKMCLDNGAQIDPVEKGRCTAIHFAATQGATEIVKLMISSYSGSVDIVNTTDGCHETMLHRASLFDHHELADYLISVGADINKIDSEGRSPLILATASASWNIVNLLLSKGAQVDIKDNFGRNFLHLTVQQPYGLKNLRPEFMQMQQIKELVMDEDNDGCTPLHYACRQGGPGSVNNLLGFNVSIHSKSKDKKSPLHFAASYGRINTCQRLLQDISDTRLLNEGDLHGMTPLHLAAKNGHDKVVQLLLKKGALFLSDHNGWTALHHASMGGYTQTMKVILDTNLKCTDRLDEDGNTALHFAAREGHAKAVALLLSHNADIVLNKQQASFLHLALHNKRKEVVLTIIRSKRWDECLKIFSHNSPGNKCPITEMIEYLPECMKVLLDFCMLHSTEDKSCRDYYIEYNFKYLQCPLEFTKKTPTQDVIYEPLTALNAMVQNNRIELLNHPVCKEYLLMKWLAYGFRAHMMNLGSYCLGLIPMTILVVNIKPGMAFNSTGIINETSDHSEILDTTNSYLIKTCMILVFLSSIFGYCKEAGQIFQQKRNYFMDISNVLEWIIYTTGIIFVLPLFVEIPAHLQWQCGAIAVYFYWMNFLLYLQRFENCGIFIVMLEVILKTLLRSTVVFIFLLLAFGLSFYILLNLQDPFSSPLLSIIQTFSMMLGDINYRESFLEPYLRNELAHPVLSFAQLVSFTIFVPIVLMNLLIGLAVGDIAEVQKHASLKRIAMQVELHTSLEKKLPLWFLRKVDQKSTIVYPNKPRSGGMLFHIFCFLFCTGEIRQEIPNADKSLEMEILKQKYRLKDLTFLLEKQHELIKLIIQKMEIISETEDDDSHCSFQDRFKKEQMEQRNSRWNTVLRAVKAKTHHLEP
# Sequence of TRPA1 channel (Q6RI86 whole entry): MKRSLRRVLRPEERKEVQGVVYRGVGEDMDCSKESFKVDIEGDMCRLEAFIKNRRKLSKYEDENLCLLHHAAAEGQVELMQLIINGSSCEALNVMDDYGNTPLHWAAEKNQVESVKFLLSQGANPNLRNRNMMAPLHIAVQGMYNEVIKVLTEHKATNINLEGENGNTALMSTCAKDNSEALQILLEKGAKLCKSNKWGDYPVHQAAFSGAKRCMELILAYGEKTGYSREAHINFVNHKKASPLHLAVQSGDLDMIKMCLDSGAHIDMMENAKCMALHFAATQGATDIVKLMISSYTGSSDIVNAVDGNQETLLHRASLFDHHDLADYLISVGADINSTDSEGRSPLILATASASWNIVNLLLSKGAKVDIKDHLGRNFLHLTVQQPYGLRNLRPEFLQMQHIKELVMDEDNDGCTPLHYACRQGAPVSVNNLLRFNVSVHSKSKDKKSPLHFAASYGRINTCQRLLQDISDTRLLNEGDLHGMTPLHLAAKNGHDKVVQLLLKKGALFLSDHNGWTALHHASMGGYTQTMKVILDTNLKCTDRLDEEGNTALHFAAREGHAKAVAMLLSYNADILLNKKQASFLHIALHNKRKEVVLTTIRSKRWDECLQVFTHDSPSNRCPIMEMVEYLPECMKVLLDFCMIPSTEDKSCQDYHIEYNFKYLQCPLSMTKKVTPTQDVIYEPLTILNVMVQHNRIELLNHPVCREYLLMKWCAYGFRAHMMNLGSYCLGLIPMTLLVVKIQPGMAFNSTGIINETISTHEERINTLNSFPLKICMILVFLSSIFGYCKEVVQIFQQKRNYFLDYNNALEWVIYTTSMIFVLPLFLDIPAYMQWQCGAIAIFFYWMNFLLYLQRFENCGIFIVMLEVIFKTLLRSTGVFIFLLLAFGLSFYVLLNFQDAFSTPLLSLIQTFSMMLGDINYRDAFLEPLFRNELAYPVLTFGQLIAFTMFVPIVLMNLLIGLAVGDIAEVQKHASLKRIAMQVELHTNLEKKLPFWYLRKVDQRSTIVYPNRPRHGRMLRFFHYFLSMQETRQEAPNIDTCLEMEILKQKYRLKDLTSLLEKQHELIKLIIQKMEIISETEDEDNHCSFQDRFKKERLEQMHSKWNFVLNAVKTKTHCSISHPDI
Structure (SMILES),pIC50 (human TRPA1),also measured
"CC(C)n1c(=O)c(CNC(=O)[C@@H]2CCCN2S(=O)(=O)c2cc3ccccc3o2)cn(-c2ccc(C(F)(F)F)cc2)c1=O [Example 1, (2S)-1-(benzofuran-2-ylsulfonyl)-N-[[3-isopropyl-2,4-dioxo-1-[4-(trifluoromethyl)phenyl]pyrimidin-5-yl]methyl]pyrrolidine-2-carboxamide]",7.80,"AITC-induced increase in the blood flow (TRPA1 channel; FIG. 1, rats, doses 0.3, 1 and 3 mg/kg): suppressed; rat blood flow model (% inh.) (TRPA1 channel; dose 0.3 mg/kg): 45 % inh.; rat blood flow model (% inh.) (TRPA1 channel; dose 1 mg/kg): 56 % inh.; rat blood flow model (% inh.) (TRPA1 channel; dose 3 mg/kg): 58 % inh."
"CC(C)n1c(=O)c(CNC(=O)[C@@H]2CCCN2S(=O)(=O)c2cc3cc(F)ccc3o2)cn(-c2ccc(C(F)(F)F)nc2)c1=O [Example 30, (2S)-1-(5-fluorobenzofuran-2-yl)sulfonyl-N-[[3-isopropyl-2,4-dioxo-1-[6-(trifluoromethyl)-3-pyridyl]pyrimidin-5-yl]methyl]pyrrolidine-2-carboxamide]",8.00,–
"O=C(NCc1cn(-c2ccc(C(F)(F)F)cc2)c(=O)n(C2CCOCC2)c1=O)[C@@H]1CCCN1S(=O)(=O)c1cc2ccccc2o1 [Example 9, (2S)-1-(benzofuran-2-ylsulfonyl)-N-[[2,4-dioxo-3-tetrahydropyran-4-yl-1-[4-(trifluoromethyl)phenyl]-pyrimidin-5-yl]methyl]pyrrolidine-2-carboxamide]",6.85,–
"CC(C)n1c(=O)c(CNC(=O)[C@@H]2CCCN2S(=O)(=O)c2cc3cnccc3o2)cn(-c2ccc(C(F)(F)F)cn2)c1=O [Example 36, (2S)-1-fro[3,2-c]pyridin-2-ylsulfonyl-N-[[3-isopropyl-2,4-dioxo-1-[5-(trifluoromethyl)-2-pyridyl]pyrimidin-5-yl]methyl]pyrrolidine-2-carboxamide]",6.70,–
"O=C(NCc1ccc(=O)n(-c2ccc(C(F)(F)F)cc2)c1)[C@@H]1CCCN1S(=O)(=O)c1cc2cc(F)ccc2o1 [Example 22, (2S)-1-(5-fluorobenzofuran-2-yl)sulfonyl-N-[[6-oxo-1-[4-(trifluoromethyl)phenyl]-3-pyridyl]methyl]pyrrolidine-2-carboxamide]",7.22,–
"CC(C)n1cc(-c2ccc(C(F)(F)F)cn2)cc(CNC(=O)[C@@H]2CCCN2S(=O)(=O)c2cc3cc(F)ccc3o2)c1=O [Example 43, (2S)-1-(5-fluorobenzofuran-2-yl)sulfonyl-N-[[1-isopropyl-2-oxo-5-[5-(trifluoromethyl)-2-pyridyl]-3-pyridyl]methyl]pyrrolidine-2-carboxamide]",7.64,–
"CC(C)n1c(=O)c(CNC(=O)[C@@H]2C=CCN2S(=O)(=O)c2cc3cc(F)ccc3o2)cn(-c2ccc(C(F)(F)F)cc2)c1=O [Example 16, (2S)-1-(5-fluorobenzofuran-2-yl)sulfonyl-N-[[3-isopropyl-2,4-dioxo-1-[4-(trifluoromethyl)phenyl]-pyrimidin-5-yl]methyl]-2,5-dihydropyrrole-2-carboxamide]",8.44,–
CC(C)n1c(=O)c(CNC(=O)[C@H](C)NS(=O)(=O)c2cc3cc(F)ccc3o2)cn(-c2ccc(C(F)(F)F)cc2)c1=O [Example 24],7.38,–

# Reference: patent US10584116B2, “Heterocyclic sulfonamide derivative and medicine containing same” (EA Pharma Co., Ltd., priority 2016, dated 2020)
